{"source": "patent US5041581A", "about": "(priority 1986, dated 1991)", "key": {"[1]": {"assay": "Stability of L-PT in 0.9% saline at 4° C. for 14 days", "assay_type": "physicochemical", "conditions": "for Stability % (PT remaining in the liposomes): 0.9% saline, 4° C., DMPC:DMPG 7:3; for stability compared with Pt cyclopentenecarboxylato-racemic-DACH, in words: saline", "procedure": "The stability of the different liposome-PT (L-PT) preparations in 0.9% NaCl solution at 4° C., and 50% human (AB) serum in 0.9% NaCl solution at 37° C. was determined using the following formula: [formula]\nThe EE values used in the stability determinations were obtained by measuring PT in the supernatants by UV spectrophotometry (0.9% NaCl solution) or x-ray fluorescence (50% human AB serum). The stability in 0.9% NaCl solution was determined up to 14 days after the initial preparation. In addition, the L-PT preparations were observed microscopically on day 14 to check the morphology of the vesicles. The stability in 50% human AB serum was determined up to 18 hours after incubation.\nPreparations were suspended in 0.9% saline and incubated at 4° C. for 14 days. The liposome compositions were observed by light microscopy and the amount of free PT in the saline determined. […] Free PT was determined and stability was calculated as the percentage PT remaining in the liposomes."}, "L1210 mouse leukemia": {"system": "L1210 mouse leukemia", "assay": "In vivo antitumor activity against L1210 mouse leukemia (L1210-BDF1 mouse model)", "set-up": "species or system BDF1 mice", "conditions": "for Optimal dose: L1210 ip/ip, single dose", "procedure": "BDF1 mice were purchased from Charles River (Wilmington, MA). Groups of 6-8 mice weighing 18-22 gm were inoculated ip with 1×10^6 L1210 leukemia cells on day 0. L1210 cells were kept in DBA2 mice were weekly passages between the different experiments. All L-PT preparations were injected ip in volumes of 0.1 to 0.3 ml 24 hours after tumor inoculation. Two different schedules of administration were used: a single injection on day 1 or an injection on days 1, 5 and 9 (multiple). […] Clinical behavior and survival times were monitored until all animals had died. Results were expressed as % T/C (median survival time of treated mice/median survival time of control mice ×100) and number of long-term survivors. Mice living more than 30 days and more than 60 days were considered to be long-term survivors for the single and multiple injection schedule respectively. All L-PT preparations tested for antitumor activity were prepared under sterile conditions on the same day of the experiment.\nThe antitumor activity against L-1210 murine leukemia of the different L-PT analogs was assessed in an L-1210-BDF, mouse model (tumor inoculation day 0, treatment day 1, ip) as described earlier herein.\nThese liposome-encapsulated compounds were tested to determine their optimal dose and effectiveness as inhibitors of in vivo tumor growth as described in Example 12."}, "[2]": {"assay": "Encapsulation efficiency of platinum complexes in multilamellar liposomes (UV spectrophotometry / x-ray fluorescence)", "assay_type": "physicochemical", "conditions": "for Encapsulation Efficiency: lipophilic cisplatin analogues incorporated in liposomes (Table 12); for % Encapsulation Efficiency: liposomes DMPC:DMPG 7:3, mean of at least three experiments", "procedure": "Multilamellar lipid vesicles (MLV) or liposomes containing incorporated platinum complexes (PT) of the above descriptions were prepared as previously described for other compounds (Lopez-Berestein et al (4)(1984) Clin. Exp. Metastasis V 2 pp 127-137 and Lopez-Berestein et al (1983) J Inf Dis V 147 pp 937-945). In brief, chloroform solutions of lipids (at the desired molar ratio) and PT were mixed at a lipid-PT ratio of 15:1 and the chloroform was evaporated in a rotary evaporator (Buchi, Brinkmann Instruments, Westbury, NY). The dried lipid film obtained, containing PT, was then dispersed with an aqueous solution (0.9% NaCl in water) by vigorous handshaking. The suspension was subsequently centrifuged at 30,000 ×g for 45 minutes, the supernatant was discarded, and the pellet containing PT was resuspended in 0.9% NaCl solution.\nElemental platinum (Pt) was determined in the liposome suspension and the pellet by x-ray fluorescence as previously reported (Seifert et al (1979) Proc. Amer. Ass'n. Cancer Res. V 20 p. 168) in the Department of Analytical Chemistry, The University of Texas Medical School at Houston, TX. The amount of platinum complex (PT) was determined in the supernatant by ultraviolet (UV) spectrophotometry using a wavelength of 224 nm. The EE was initially calculated with the two following formulas:\n1. EE =Pt in pellet/total Pt in the initial liposome suspension\n2. EE =Total Pt initially added - Pt in supernatant/total Pt initially added\nThe encapsulation efficiency for Pt-cyclopentenecarboxylato racemic-DACH was 66%. […] The encapsulation efficiency for Pt-neodecanoato-racemic-DACH, Pt-neodecanoatotrans-RR-DACH, Pt-n-decyliminodiacetato racemic DACH complexes are presented in Table I, shown below.\nThe compounds prepared in Examples 14-19 were tested for their efficiency of encapulation in liposomes by the methods described in Example 6. These liposome-encapsulated compounds were tested to determine their optimal dose and effectiveness as inhibitors of in vivo tumor growth as described in Example 12. The data in Table 12 reveal the resultant measurements."}, "[3]": {"assay": "Solubility in organic solvents and water", "assay_type": "physicochemical", "conditions": "for solubility in methanol and chloroform, in words: chloroform (and other organic solvents where stated)"}, "[4]": {"conditions": "25 mg/kg ip day 1, liposomes DMPC:DMPG 7:3 (Table 8)"}, "[5]": {"conditions": "L1210 ip/ip single dose at the optimal dose, incorporated in liposomes (Table 12)"}, "[6]": {"conditions": "incorporated in liposomes (Table 12)"}}, "data": [{"compound": "CCCCCCCCCCN1CC(=O)[O][Pt]2([NH]C3CCCCC3[NH]2)[O]C(=O)C1", "note": "(mixture of isomers) [Pt-N-decyliminodiaceto-racemic-DACH mixture, cis-bis-n-decyliminodiaceto-DACH-platinum (II)]", "values": [{"measurement": "Stability % (PT remaining in the liposomes)", "setting": "[1]", "result": 100, "unit": "%"}, {"measurement": "% T/C", "setting": "L1210 mouse leukemia; [4]", "result": 150, "unit": "%"}]}, {"compound": "CCCCCCCCCCN1CC(=O)[O][Pt]2([NH][C@@H]3CCCC[C@H]3[NH]2)[O]C(=O)C1", "note": "[Pt-N-decyliminodiacetato-trans-RR-DACH, cis-bis-n-decyliminodiacetato-trans-RR-DACH-Pt (II)]", "values": [{"measurement": "Stability % (PT remaining in the liposomes)", "setting": "[1]", "result": 100, "unit": "%"}, {"measurement": "% T/C", "setting": "L1210 mouse leukemia; [4]", "result": 162, "unit": "%"}]}, {"compound": "O=C([O][Pt]1([O]C(=O)C2=CCCC2)[NH][C@@H]2CCCC[C@H]2[NH]1)C1=CCCC1", "note": "[Pt-cyclopentenecarboxylato trans-RR-DACH, cis-bis-cyclopentenecarboxylato-1,2-trans-RR-DACH-Pt (II)-3H2 O]", "values": [{"measurement": "Stability % (PT remaining in the liposomes)", "setting": "[1]", "result": 94, "unit": "%"}, {"measurement": "stability compared with Pt cyclopentenecarboxylato-racemic-DACH, in words", "setting": "[1]", "result": "greater stability"}, {"measurement": "% T/C", "setting": "L1210 mouse leukemia; [4]", "result": 187, "unit": "%"}]}, {"compound": "O=C([O][Pt]1([O]C(=O)C2=CCCC2)[NH][C@H]2CCCC[C@@H]2[NH]1)C1=CCCC1", "note": "[Pt-cyclopentenecarboxylato trans-SS-DACH]", "values": [{"measurement": "% T/C", "setting": "L1210 mouse leukemia; [4]", "result": 155, "unit": "%"}]}, {"compound": "CCCCCCCCCC(=O)[O][Pt]1([O]C(=O)CCCCCCCCC)[NH][C@@H]2CCCC[C@H]2[NH]1", "note": "[cis-bis-decanoato-trans-R,R-1,2-diaminocyclohexane-platinum II]", "values": [{"measurement": "% T/C", "setting": "L1210 mouse leukemia; [5]", "result": 187, "unit": "%"}, {"measurement": "Optimal dose", "setting": "L1210 mouse leukemia; [6]", "result": 50, "unit": "mg/kg"}]}, {"compound": "Cis-bis-neodecanoato-trans-R,R-1,2-diaminocyclohexane-platinum", "values": [{"measurement": "Encapsulation Efficiency", "setting": "[2]", "result": 93, "unit": "%"}, {"measurement": "% T/C", "setting": "L1210 mouse leukemia; [5]", "result": 170, "unit": "%"}, {"measurement": "Optimal dose", "setting": "L1210 mouse leukemia; [6]", "result": 25, "unit": "mg/kg"}]}, {"compound": "cis-bis-neodecanoato-RR-DACH-Platinum (II) [Pt-neodecanoato-trans-RR-DACH]", "values": [{"measurement": "% Encapsulation Efficiency", "setting": "[2]", "result": 99, "unit": "%"}, {"measurement": "Stability % (PT remaining in the liposomes)", "setting": "[1]", "result": 99, "unit": "%"}, {"measurement": "% T/C", "setting": "L1210 mouse leukemia; [4]", "result": 175, "unit": "%"}]}, {"compound": "cis-bis-neodecanoato-bis-cyclohexylamine-platinum (II)", "values": [{"measurement": "Encapsulation Efficiency", "setting": "[2]", "result": 89, "unit": "%"}, {"measurement": "% T/C", "setting": "L1210 mouse leukemia; [5]", "result": 125, "unit": "%"}, {"measurement": "Optimal dose", "setting": "L1210 mouse leukemia; [6]", "result": 100, "unit": "mg/kg"}, {"measurement": "solubility in methanol and chloroform, in words", "setting": "[3]", "result": "highly soluble"}, {"measurement": "solubility in water, in words", "setting": "[3]", "result": "insoluble"}]}, {"compound": "cis-bis-neodecanoato-bis-diamine-platinum (II)", "values": [{"measurement": "Encapsulation Efficiency", "setting": "[2]", "result": 95, "unit": "%"}, {"measurement": "% T/C", "setting": "L1210 mouse leukemia; [5]", "result": 200, "unit": "%"}, {"measurement": "Optimal dose", "setting": "L1210 mouse leukemia; [6]", "result": 50, "unit": "mg/kg"}, {"measurement": "solubility in methanol and chloroform, in words", "setting": "[3]", "result": "highly soluble"}, {"measurement": "solubility in water, in words", "setting": "[3]", "result": "insoluble"}]}, {"compound": "cis-bis-neodecanoato-bis-isopropylamine-platinum (II)", "values": [{"measurement": "Encapsulation Efficiency", "setting": "[2]", "result": 87, "unit": "%"}, {"measurement": "% T/C", "setting": "L1210 mouse leukemia; [5]", "result": 150, "unit": "%"}, {"measurement": "Optimal dose", "setting": "L1210 mouse leukemia; [6]", "result": 100, "unit": "mg/kg"}, {"measurement": "solubility in methanol and chloroform, in words", "setting": "[3]", "result": "highly soluble"}, {"measurement": "solubility in water, in words", "setting": "[3]", "result": "insoluble"}]}, {"compound": "cis-bis-neodecanoato-ethylenediamine-platinum(II)", "values": [{"measurement": "% T/C", "setting": "L1210 mouse leukemia; [5]", "result": 144, "unit": "%"}, {"measurement": "Optimal dose", "setting": "L1210 mouse leukemia; [6]", "result": 75, "unit": "mg/kg"}]}, {"compound": "cis-bis-neodecanoatoDACH-platinum II [Pt-neodecanoato-racemic DACH-mixture]", "values": [{"measurement": "% Encapsulation Efficiency", "setting": "[2]", "result": 99, "unit": "%"}, {"measurement": "Stability % (PT remaining in the liposomes)", "setting": "[1]", "result": 100, "unit": "%"}, {"measurement": "stability compared with Pt cyclopentenecarboxylato-racemic-DACH, in words", "setting": "[1]", "result": "greater stability"}, {"measurement": "% T/C", "setting": "L1210 mouse leukemia; 50 mg/kg ip day 1, liposomes DMPC:DMPG 7:3 (Table 8)", "result": 187, "unit": "%"}, {"measurement": "solubility in methanol and chloroform, in words", "setting": "[3]", "result": "highly soluble"}, {"measurement": "solubility in water, in words", "setting": "[3]", "result": "insoluble"}]}]}
